Source: ChEMBL document CHEMBL1129150, “Novel antifungal 2-aryl-1-(1H-1,2,4-triazol-1-yl)butan-2-ol derivatives with high activity against Aspergillus fumigatus” (1996)
In brackets after ≈: the same amount, converted by molar mass. Several values for one entry are separate records, joined by “and”; a condition that tells them apart may be missing. Identical values can stand only once.

Legend:
Format in all cases: functional
[1] = system: Aspergillus fumigatus; test: In vitro for the antifungal activity against Aspergillus fumigatus.
[2] = system: Mus musculus; test: Number of mice cured after 10 days against Aspergillus fumigatus on intravenous infection to mice
[3] = system: Mus musculus; test: Number of mice surviving due to reduction in kidney fungal burden after 10 days against Aspergillus fumigatus on intravenous infection to mice
[4] = system: Aspergillus fumigatus; test: In vitro antifungal activity against Aspergillus fumigatus after 24 hr. incubation
[5] = system: Nakaseomyces glabratus; test: In vitro antifungal activity against Candida glabrata
[6] = system: Pichia kudriavzevii; test: In vitro antifungal activity against Candida krusei
[7] = system: Cryptococcus neoformans; test: In vitro antifungal activity against Cryptococcus neoformans
[8] = system: Candida albicans; test: In vitro antifungal activity against Candida albicans after 24 hr. incubation
[9] = system: Candida albicans; test: In vitro antifungal activity against Candida albicans
[10] = Aspergillus fumigatus, read-out: MIC
[11] = Aspergillus fumigatus, 24 h, read-out: MFC

`C[C@@H](c1ccncc1)[C@](O)(Cn1cncn1)c1ccc(F)cc1F` showed an MIC [1, 10] of 0.05 µg/mL (≈ 0.151 µM), a No. of cures [2] of 0 and a No. of survivors [3] of 4. It also gave an MFC [4, 11] of 0.09 µg/mL (≈ 0.272 µM).

Compound `CC(c1ncnc(Cl)c1Cl)C(O)(Cn1cncn1)c1ccc(F)cc1F` (stereo not given) has an MIC [1, 10] of 3.1 µg/mL (≈ 7.75 µM) and an MFC [4, 11] of 12.5 µg/mL (≈ 31.2 µM).

`CC(c1ccccn1)C(O)(Cn1cncn1)c1ccc(F)cc1F` (stereo in doubt; 23b) gave an MIC [1] of 0.39 µg/mL (≈ 1.18 µM) and an MFC [4] of 1.56 µg/mL (≈ 4.72 µM).

For `OC(Cc1ccncc1)(Cn1cncn1)c1ccc(F)cc1F` (stereo not given), the MIC [1, 10] was 3.1 µg/mL (≈ 9.8 µM).

`CC(c1ncncc1F)C(O)(Cn1cncn1)c1ccc(F)cc1F` (stereo not given) gave an MIC [1, 10] of 0.39 µg/mL (≈ 1.12 µM), a No. of cures [2] of 4 and a No. of survivors [3] of 5. It also gave an MFC [4, 11] of 0.78 µg/mL (≈ 2.23 µM).

`CC(c1cccnc1)C(O)(Cn1cncn1)c1ccc(F)cc1F` (stereo not given) was tested, and the MIC [1, 10] was 0.39 µg/mL (≈ 1.18 µM).

Work on `C[C@@H](c1ncncc1F)[C@](O)(Cn1cncn1)c1ccc(F)cc1F` [VORICONAZOLE] yielded an MIC [1, 10] of 0.09 µg/mL (≈ 0.258 µM), an MIC [5] of 0.19 µg/mL (≈ 0.544 µM) and an MIC [6] of 0.24 µg/mL (≈ 0.687 µM). For the same compound, the MIC [7] was 0.39 µg/mL (≈ 1.12 µM) and the MIC [8] was 0.03 µg/mL (≈ 0.0859 µM).

For `CC(c1ncnc(Cl)c1F)C(O)(Cn1cncn1)c1ccc(F)cc1F` (stereo not given), the MIC [1, 10] was 3.1 µg/mL (≈ 8.08 µM) and the MFC [4, 11] was 3.1 µg/mL (≈ 8.08 µM).

For `CC(c1ccncc1F)C(O)(Cn1cncn1)c1ccc(F)cc1F` (stereo not given), the MIC [1, 10] was 0.098 µg/mL (≈ 0.281 µM), the No. of cures [2] was 5 and the No. of survivors [3] was 5. It also gave an MFC [4, 11] of 0.19 µg/mL (≈ 0.545 µM).

With `CC(n1cncn1)C(O)(Cn1cncn1)c1ccc(F)cc1F` (stereo not given) the MIC [1, 10] was 12.5 µg/mL (≈ 39 µM) and the MFC [4, 11] was 25 µg/mL (≈ 78.1 µM).

In the case of `OC(Cn1cncn1)(Cn1cncn1)c1ccc(F)cc1F` [FLUCONAZOLE], the MIC [1, 10] is reported as over 50 µg/mL, the MIC [5] is reported as 1.9 µg/mL (≈ 6.2 µM) and the MIC [6] is reported as over 25 µg/mL. The MIC [7] was 9.6 µg/mL (≈ 31.3 µM), the MIC [9] was 1 µg/mL (≈ 3.27 µM) and the MFC [4, 11] was over 50 µg/mL.

`OC(Cc1ccccn1)(Cn1cncn1)c1ccc(F)cc1F` (stereo not given) showed an MIC [1, 10] of 25 µg/mL (≈ 79 µM).

`CC(c1ncncc1Cl)C(O)(Cn1cncn1)c1ccc(F)cc1F` (stereo not given) was tested, and the MIC [1, 10] was 0.39 µg/mL (≈ 1.07 µM) and the MFC [4, 11] was 1.56 µg/mL (≈ 4.26 µM).

`CC(c1ccccn1)C(O)(Cn1cncn1)c1ccc(F)cc1F` (stereo in doubt; 23a) showed an MIC [1] of 12.5 µg/mL (≈ 37.8 µM) and an MFC [4] of 100 µg/mL (≈ 303 µM).

For `CCC(C)n1ncn(-c2ccc(N3CCN(c4ccc(OCC5COC(Cn6cncn6)(c6ccc(Cl)cc6Cl)O5)cc4)CC3)cc2)c1=O` (stereo not given) [ITRACONAZOLE], the MIC [1] was 0.14 µg/mL and 0.39 µg/mL, the MIC [5] was 0.19 µg/mL (≈ 0.269 µM) and the MIC [6] was 0.05 µg/mL (≈ 0.0709 µM). For the same compound, the MIC [7] was 0.39 µg/mL (≈ 0.553 µM), the No. of cures [2] was 3 and the MIC [9] was 0.12 µg/mL (≈ 0.17 µM). The No. of survivors [3] was 4 and the MIC [4] was 0.19 µg/mL (≈ 0.269 µM).

`CC(c1ccncn1)C(O)(Cn1cncn1)c1ccc(F)cc1F` (stereo not given) was tested, and the MIC [1, 10] was 0.39 µg/mL (≈ 1.18 µM), the No. of cures [2] was 0 and the No. of survivors [3] was 3. For the same compound, the MFC [4, 11] was 0.39 µg/mL (≈ 1.18 µM).
